{
  "source": "patent US7396837B2",
  "about": "“Antitumoral analogs of lamellarins” (Pharma Mar, S.A.U., priority 2002, dated 2008)",
  "format_in_all_cases": "cell-based",
  "key": {"K-562": {"test_system": "K-562", "experiment": "SRB colorimetric cell growth inhibition assay, K-562", "settings": "Homo sapiens, K562, K-562", "procedure,_shortened": "(§1)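 Continuous-exposure format, human tumour lines. SRB colour reaction quantifies growth/viability. Triplicate wells → mean ± SD → GI, TGI, LC.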"}, "A-549": {"test_system": "A-549", "experiment": "SRB colorimetric cell growth inhibition assay, A-549", "settings": "Homo sapiens, A549, A-549", "procedure,_shortened": "as §1"}, "SK-MEL-28": {"test_system": "SK-MEL-28", "experiment": "SRB colorimetric cell growth inhibition assay, SK-MEL-28", "settings": "Homo sapiens, SK-MEL-28, MEL-28", "procedure,_shortened": "as §1"}, "HT-29": {"test_system": "HT-29", "experiment": "SRB colorimetric cell growth inhibition assay, HT-29", "settings": "Homo sapiens, HT-29, HT-29", "procedure,_shortened": "as §1"}, "LoVo": {"test_system": "LoVo", "experiment": "SRB colorimetric cell growth inhibition assay, LoVo", "settings": "Homo sapiens, LoVo", "procedure,_shortened": "as §1"}, "LoVo-Dox": {"test_system": "LoVo-Dox", "experiment": "SRB colorimetric cell growth inhibition assay, LoVo-Dox (MDR)", "settings": "Homo sapiens, LOVO-DOX", "procedure,_shortened": "as §1"}, "DU-145": {"test_system": "DU-145", "experiment": "SRB colorimetric cell growth inhibition assay, DU-145", "settings": "Homo sapiens, DU-145, DU-145", "procedure,_shortened": "as §1"}, "LNCaP": {"test_system": "LNCaP", "experiment": "SRB colorimetric cell growth inhibition assay, LNCaP", "settings": "Homo sapiens, LNCaP, LN-caP", "procedure,_shortened": "as §1"}, "SK-BR-3": {"test_system": "SK-BR-3", "experiment": "SRB colorimetric cell growth inhibition assay, SK-BR-3", "settings": "Homo sapiens, SK-BR-3, SK-BR-3", "procedure,_shortened": "as §1"}, "IGROV": {"test_system": "IGROV", "experiment": "SRB colorimetric cell growth inhibition assay, IGROV", "settings": "Homo sapiens, IGROV", "procedure,_shortened": "as §1"}, "IGROV-ET": {"test_system": "IGROV-ET", "experiment": "SRB colorimetric cell growth inhibition assay, IGROV-ET (ET-743 resistant)", "settings": "Homo sapiens, IGROV-ET", "procedure,_shortened": "as §1"}, "HeLa": {"test_system": "HeLa", "experiment": "SRB colorimetric cell growth inhibition assay, HeLa", "settings": "Homo sapiens, HeLa", "procedure,_shortened": "as §1"}, "HeLa-APL": {"test_system": "HeLa-APL", "experiment": "SRB colorimetric cell growth inhibition assay, HeLa-APL (aplidine resistant)", "settings": "Homo sapiens, HELA-APL", "procedure,_shortened": "as §1"}, "PANC-1": {"test_system": "PANC-1", "experiment": "SRB colorimetric cell growth inhibition assay, PANC-1", "settings": "Homo sapiens, PANC-1, PANC-1", "procedure,_shortened": "as §1"}},
  "data": [
    {"smiles": "COc1cc(-c2c3c4cc(OC)c(O)cc4oc(=O)c3n3ccc4c(N)cccc4c23)ccc1O", "note": "[Compound 182]", "values": [
      {"measurement": "GI50", "setting": "K-562; GI=growth inhibition, read-out: GI50 K-562", "value": 0.316, "unit": "µM"},
      {"measurement": "CC50", "setting": "K-562; cell killing (cytotoxic effect), read-out: LC50 K-562", "value": 21.3, "unit": "µM"},
      {"measurement": "IC (TGI)", "setting": "K-562; total growth inhibition (cytostatic effect), read-out: TGI K-562", "value": 4.85, "unit": "µM"},
      {"measurement": "GI50", "setting": "A-549; GI=growth inhibition, read-out: GI50 A-549", "value": 9.58, "unit": "µM"},
      {"measurement": "CC50", "setting": "A-549; cell killing (cytotoxic effect), read-out: LC50 A-549", "value": 21.3, "unit": "µM"},
      {"measurement": "IC (TGI)", "setting": "A-549; total growth inhibition (cytostatic effect), read-out: TGI A-549", "value": 21.3, "unit": "µM"},
      {"measurement": "GI50", "setting": "SK-MEL-28; GI=growth inhibition, read-out: GI50 MEL-28", "value": 1.08, "unit": "µM"},
      {"measurement": "CC50", "setting": "SK-MEL-28; cell killing (cytotoxic effect), read-out: LC50 MEL-28", "value": 21.3, "unit": "µM"},
      {"measurement": "IC (TGI)", "setting": "SK-MEL-28; total growth inhibition (cytostatic effect), read-out: TGI MEL-28", "value": 21.3, "unit": "µM"},
      {"measurement": "GI50", "setting": "HT-29; GI=growth inhibition, read-out: GI50 HT-29", "value": 21.3, "unit": "µM"},
      {"measurement": "CC50", "setting": "HT-29; cell killing (cytotoxic effect), read-out: LC50 HT-29", "value": 21.3, "unit": "µM"},
      {"measurement": "IC (TGI)", "setting": "HT-29; total growth inhibition (cytostatic effect), read-out: TGI HT-29", "value": 21.3, "unit": "µM"},
      {"measurement": "GI50", "setting": "LoVo; GI=growth inhibition, read-out: GI50 LOVO", "value": 21.3, "unit": "µM"},
      {"measurement": "CC50", "setting": "LoVo; cell killing (cytotoxic effect), read-out: LC50 LOVO", "value": 21.3, "unit": "µM"},
      {"measurement": "IC (TGI)", "setting": "LoVo; total growth inhibition (cytostatic effect), read-out: TGI LOVO", "value": 21.3, "unit": "µM"},
      {"measurement": "GI50", "setting": "LoVo-Dox; GI=growth inhibition, read-out: GI50 LOVO-DOX", "value": 1.21, "unit": "µM"},
      {"measurement": "CC50", "setting": "LoVo-Dox; cell killing (cytotoxic effect), read-out: LC50 LOVO-DOX", "value": 21.3, "unit": "µM"},
      {"measurement": "IC (TGI)", "setting": "LoVo-Dox; total growth inhibition (cytostatic effect), read-out: TGI LOVO-DOX", "value": 21.3, "unit": "µM"},
      {"measurement": "GI50", "setting": "DU-145; GI=growth inhibition, read-out: GI50 DU-145", "value": 1.08, "unit": "µM"},
      {"measurement": "CC50", "setting": "DU-145; cell killing (cytotoxic effect), read-out: LC50 DU-145", "value": 21.3, "unit": "µM"},
      {"measurement": "IC (TGI)", "setting": "DU-145; total growth inhibition (cytostatic effect), read-out: TGI DU-145", "value": 21.3, "unit": "µM"},
      {"measurement": "GI50", "setting": "LNCaP; GI=growth inhibition, read-out: GI50 LN-caP", "value": 1.75, "unit": "µM"},
      {"measurement": "CC50", "setting": "LNCaP; cell killing (cytotoxic effect), read-out: LC50 LN-caP", "value": 21.3, "unit": "µM"},
      {"measurement": "IC (TGI)", "setting": "LNCaP; total growth inhibition (cytostatic effect), read-out: TGI LN-caP", "value": 21.3, "unit": "µM"},
      {"measurement": "GI50", "setting": "SK-BR-3; GI=growth inhibition, read-out: GI50 SK-BR-3", "value": 0.365, "unit": "µM"},
      {"measurement": "CC50", "setting": "SK-BR-3; cell killing (cytotoxic effect), read-out: LC50 SK-BR-3", "value": 12, "unit": "µM"},
      {"measurement": "IC (TGI)", "setting": "SK-BR-3; total growth inhibition (cytostatic effect), read-out: TGI SK-BR-3", "value": 1.25, "unit": "µM"},
      {"measurement": "GI50", "setting": "IGROV; GI=growth inhibition, read-out: GI50 IGROV", "value": 2.86, "unit": "µM"},
      {"measurement": "CC50", "setting": "IGROV; cell killing (cytotoxic effect), read-out: LC50 IGROV", "value": 21.3, "unit": "µM"},
      {"measurement": "IC (TGI)", "setting": "IGROV; total growth inhibition (cytostatic effect), read-out: TGI IGROV", "value": 21.3, "unit": "µM"},
      {"measurement": "GI50", "setting": "IGROV-ET; GI=growth inhibition, read-out: GI50 IGROV-ET", "value": 3.16, "unit": "µM"},
      {"measurement": "CC50", "setting": "IGROV-ET; cell killing (cytotoxic effect), read-out: LC50 IGROV-ET", "value": 21.3, "unit": "µM"},
      {"measurement": "IC (TGI)", "setting": "IGROV-ET; total growth inhibition (cytostatic effect), read-out: TGI IGROV-ET", "value": 21.3, "unit": "µM"},
      {"measurement": "GI50", "setting": "HeLa; GI=growth inhibition, read-out: GI50 HELA", "value": 8.52, "unit": "µM"},
      {"measurement": "CC50", "setting": "HeLa; cell killing (cytotoxic effect), read-out: LC50 HELA", "value": 21.3, "unit": "µM"},
      {"measurement": "IC (TGI)", "setting": "HeLa; total growth inhibition (cytostatic effect), read-out: TGI HELA", "value": 21.3, "unit": "µM"},
      {"measurement": "GI50", "setting": "HeLa-APL; GI=growth inhibition, read-out: GI50 HELA-APL", "value": 4.46, "unit": "µM"},
      {"measurement": "CC50", "setting": "HeLa-APL; cell killing (cytotoxic effect), read-out: LC50 HELA-APL", "value": 21.3, "unit": "µM"},
      {"measurement": "IC (TGI)", "setting": "HeLa-APL; total growth inhibition (cytostatic effect), read-out: TGI HELA-APL", "value": 21.3, "unit": "µM"},
      {"measurement": "GI50", "setting": "PANC-1; GI=growth inhibition, read-out: GI50 PANC-1", "value": 4.85, "unit": "µM"},
      {"measurement": "CC50", "setting": "PANC-1; cell killing (cytotoxic effect), read-out: LC50 PANC-1", "value": 21.3, "unit": "µM"},
      {"measurement": "IC (TGI)", "setting": "PANC-1; total growth inhibition (cytostatic effect), read-out: TGI PANC-1", "value": 21.3, "unit": "µM"}
    ]}
  ]
}
